# Legend:
# [1] = target: T1, [Pyruvate dehydrogenase (acetyl-transferring)] kinase isozyme 2, mitochondrial (Homo sapiens, UniProt Q15119); assay: Inhibition of PDHK2 (unknown origin) by radiometric biochemical kinase assay
# [2] = target: [Pyruvate dehydrogenase (acetyl-transferring)] kinase isozyme 1, mitochondrial (Homo sapiens, UniProt Q15118); assay: Inhibition of PDHK1 (unknown origin) by radiometric biochemical kinase assay
# [3] = target: T2, [Pyruvate dehydrogenase (acetyl-transferring)] kinase isozyme 4, mitochondrial (Homo sapiens, UniProt Q16654); assay: Inhibition of PDHK4 (unknown origin) by radiometric biochemical kinase assay
# T2 sequence (Q16654 whole entry): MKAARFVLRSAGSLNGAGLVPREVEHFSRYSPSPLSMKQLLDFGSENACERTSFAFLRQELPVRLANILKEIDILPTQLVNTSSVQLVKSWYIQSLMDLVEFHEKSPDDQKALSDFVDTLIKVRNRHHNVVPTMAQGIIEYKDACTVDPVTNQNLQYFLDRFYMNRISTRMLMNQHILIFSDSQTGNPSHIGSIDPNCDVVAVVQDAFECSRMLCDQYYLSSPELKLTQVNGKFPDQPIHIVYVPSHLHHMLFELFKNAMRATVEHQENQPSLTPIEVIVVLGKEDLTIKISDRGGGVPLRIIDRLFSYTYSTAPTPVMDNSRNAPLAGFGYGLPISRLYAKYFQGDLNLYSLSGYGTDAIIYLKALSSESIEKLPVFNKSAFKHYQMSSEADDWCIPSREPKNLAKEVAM
# [4] = target: [Pyruvate dehydrogenase (acetyl-transferring)] kinase isozyme 3, mitochondrial (Homo sapiens, UniProt Q15120); assay: Inhibition of PDHK3 (unknown origin) by radiometric biochemical kinase assay
# Chain of [Pyruvate dehydrogenase (acetyl-transferring)] kinase isozyme 3, mitochondrial (Q15120 whole entry): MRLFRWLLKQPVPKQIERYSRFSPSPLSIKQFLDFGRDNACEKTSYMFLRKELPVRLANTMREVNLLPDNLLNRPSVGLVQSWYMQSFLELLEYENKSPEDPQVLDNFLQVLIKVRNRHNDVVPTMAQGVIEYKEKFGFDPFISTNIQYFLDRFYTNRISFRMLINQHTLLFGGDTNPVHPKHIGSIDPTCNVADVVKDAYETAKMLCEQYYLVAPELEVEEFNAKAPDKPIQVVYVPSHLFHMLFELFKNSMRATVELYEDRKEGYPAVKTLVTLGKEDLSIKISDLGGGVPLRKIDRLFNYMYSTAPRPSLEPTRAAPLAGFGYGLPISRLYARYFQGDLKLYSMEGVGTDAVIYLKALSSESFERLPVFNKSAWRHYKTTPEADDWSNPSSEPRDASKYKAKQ
# DU-145 [5] = assay: Antiproliferative activity against p53 deficient human DU145 cells incubated for 72 hrs by CellTiter-Glo assay; format: functional; conditions: DU-145, 72 h
# Heat shock protein HSP90 = Heat shock protein HSP90 (Homo sapiens, UniProt P07900+P08238); assay: Inhibition of HSP90 (unknown origin); format: protein assay
# NCI-H1299 [6] = assay: Antiproliferative activity against p53 deficient human H1299 cells incubated for 72 hrs by CellTiter-Glo assay; format: functional; conditions: NCI-H1299, 72 h
# [7] = target: T1, [Pyruvate dehydrogenase (acetyl-transferring)] kinase isozyme 2, mitochondrial; assay: Inhibition of PDHK2 (unknown origin) assessed as reduction in NAD measured for 30 mins
# NCI-H1299 [8] = assay: Synergistic induction of apoptosis in human H1299 cells assessed as increase in apoptotic cells at 10 uM incubated for 48 hrs in presence of satra-platin by FITC Annexin-V and PI staining based flow cytometric analysis relative to control; format: functional
# NCI-H1299 [9] = assay: Antiproliferative activity against PDHK1/2 double knockdown human H1299 cells transfected with PDHK1/2 siRNA at 10 uM incubated for 48 hrs by CellTiter-Glo assay relative to control; format: functional
# Cytochrome P450 2D6 = Cytochrome P450 2D6 (Homo sapiens, UniProt P10635); assay: Inhibition of CYP2D6 (unknown origin); format: ADME
# Chain of Cytochrome P450 2D6 (P10635 whole entry): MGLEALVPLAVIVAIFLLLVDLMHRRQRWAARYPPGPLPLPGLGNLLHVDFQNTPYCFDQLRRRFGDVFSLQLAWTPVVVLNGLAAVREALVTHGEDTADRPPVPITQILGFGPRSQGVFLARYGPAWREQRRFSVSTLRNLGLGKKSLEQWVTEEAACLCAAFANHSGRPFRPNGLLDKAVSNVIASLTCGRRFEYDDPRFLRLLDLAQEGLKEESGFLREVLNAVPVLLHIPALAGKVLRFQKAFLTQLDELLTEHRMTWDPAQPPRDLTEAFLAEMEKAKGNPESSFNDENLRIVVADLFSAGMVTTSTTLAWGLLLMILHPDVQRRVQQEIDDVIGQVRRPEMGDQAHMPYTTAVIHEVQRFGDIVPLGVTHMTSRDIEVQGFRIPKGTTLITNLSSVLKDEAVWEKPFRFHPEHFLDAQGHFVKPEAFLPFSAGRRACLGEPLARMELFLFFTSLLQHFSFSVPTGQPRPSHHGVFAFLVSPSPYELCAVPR
# NCI-H1299 [10] = assay: Antiproliferative activity against human H1299 cells transfected with control siRNA at 10 uM incubated for 48 hrs in by CellTiter-Glo assay relative to control; format: functional
# [11] = target: T2, [Pyruvate dehydrogenase (acetyl-transferring)] kinase isozyme 4, mitochondrial; assay: Inhibition of PDHK4 (unknown origin) assessed as reduction in NAD measured for 30 mins
# Cytochrome P450 3A4 = Cytochrome P450 3A4 (Homo sapiens, UniProt P08684); assay: Inhibition of CYP3A4 (unknown origin); format: ADME
# Chain of Cytochrome P450 3A4 (P08684 whole entry): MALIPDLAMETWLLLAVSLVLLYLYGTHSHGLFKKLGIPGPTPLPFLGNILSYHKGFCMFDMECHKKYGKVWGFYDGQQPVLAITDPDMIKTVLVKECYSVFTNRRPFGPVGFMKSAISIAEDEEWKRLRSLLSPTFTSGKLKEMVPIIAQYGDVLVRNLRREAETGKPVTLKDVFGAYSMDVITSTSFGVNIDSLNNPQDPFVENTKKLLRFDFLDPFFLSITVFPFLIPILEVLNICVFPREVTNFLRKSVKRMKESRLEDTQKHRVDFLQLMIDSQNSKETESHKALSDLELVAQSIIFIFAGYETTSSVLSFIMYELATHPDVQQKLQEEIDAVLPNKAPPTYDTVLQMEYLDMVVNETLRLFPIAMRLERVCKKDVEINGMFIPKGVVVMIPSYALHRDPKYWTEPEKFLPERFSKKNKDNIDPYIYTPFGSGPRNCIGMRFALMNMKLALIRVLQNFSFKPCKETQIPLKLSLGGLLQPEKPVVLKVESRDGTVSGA
# Cytochrome P450 2C19 = Cytochrome P450 2C19 (Homo sapiens, UniProt P33261); assay: Inhibition of CYP2C19 (unknown origin); format: ADME
# Chain of Cytochrome P450 2C19 (P33261 whole entry): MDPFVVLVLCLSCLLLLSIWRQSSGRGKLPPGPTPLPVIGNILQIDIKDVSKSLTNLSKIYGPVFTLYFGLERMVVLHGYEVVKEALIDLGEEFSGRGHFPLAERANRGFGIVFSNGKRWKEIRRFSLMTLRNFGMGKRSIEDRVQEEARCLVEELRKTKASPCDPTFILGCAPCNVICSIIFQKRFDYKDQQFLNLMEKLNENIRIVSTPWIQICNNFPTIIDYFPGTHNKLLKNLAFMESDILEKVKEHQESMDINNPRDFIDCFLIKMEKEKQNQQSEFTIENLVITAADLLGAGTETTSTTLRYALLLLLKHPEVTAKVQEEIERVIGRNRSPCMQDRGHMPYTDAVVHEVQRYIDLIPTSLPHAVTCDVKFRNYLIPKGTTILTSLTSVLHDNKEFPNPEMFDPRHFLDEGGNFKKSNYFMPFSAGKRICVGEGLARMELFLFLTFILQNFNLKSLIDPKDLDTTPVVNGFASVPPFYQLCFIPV
# NCI-H1299 [12] = assay: Antiproliferative activity against p53 deficient human H1299 cells at 20 uM incubated for 72 hrs by CellTiter-Glo assay relative to control; format: functional
# DU-145 [13] = assay: Induction of apoptosis in human DU145 cells assessed as increase in apoptotic cells at 30 uM incubated for 48 hrs by FITC Annexin-V and PI staining based flow cytometric analysis relative to control; format: functional
# Cytochrome P450 1A2 = target: T3, Cytochrome P450 1A2 (Homo sapiens, UniProt P05177); assay: Inhibition of CYP1A2 (unknown origin); format: ADME
# T3 sequence (P05177 whole entry): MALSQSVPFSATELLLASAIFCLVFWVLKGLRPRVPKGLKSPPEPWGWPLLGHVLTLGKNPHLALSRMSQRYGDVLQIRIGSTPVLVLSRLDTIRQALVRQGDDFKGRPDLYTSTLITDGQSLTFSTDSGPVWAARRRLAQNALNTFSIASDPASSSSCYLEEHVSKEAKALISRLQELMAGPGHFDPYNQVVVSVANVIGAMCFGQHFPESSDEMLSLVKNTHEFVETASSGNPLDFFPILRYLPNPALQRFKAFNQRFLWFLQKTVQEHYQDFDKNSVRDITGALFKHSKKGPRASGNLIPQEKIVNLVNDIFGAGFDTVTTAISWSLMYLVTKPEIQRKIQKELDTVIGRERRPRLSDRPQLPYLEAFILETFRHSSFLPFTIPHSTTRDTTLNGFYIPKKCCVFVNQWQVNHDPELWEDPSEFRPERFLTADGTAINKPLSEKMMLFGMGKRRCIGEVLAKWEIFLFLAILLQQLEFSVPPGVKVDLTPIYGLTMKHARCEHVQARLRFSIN
# NCI-H1299 [14] = assay: Induction of apoptosis in human H1299 cells assessed as increase in apoptotic cells at 30 uM incubated for 48 hrs by FITC Annexin-V and PI staining based flow cytometric analysis relative to control; format: functional
# NCI-H1299 [15] = assay: Synergistic antiproliferative activity against human H1299 cells at 20 uM incubated for 72 hrs in presence of satra-platin by CellTiter-Glo assay relative to control; format: functional; conditions: NCI-H1299, 72 h
# NCI-H1299 [16] = assay: Inhibition of anchorage-independent colony formation in human H1299 cells at 20 uM incubated for 14 days by p iodonitrotetrazolium violet staining based method relative to control; format: functional; conditions: NCI-H1299, 336 h
# Cytochrome P450 2C9 = Cytochrome P450 2C9 (Homo sapiens, UniProt P11712); assay: Inhibition of CYP2C9 (unknown origin); format: ADME
# Chain of Cytochrome P450 2C9 (P11712 whole entry): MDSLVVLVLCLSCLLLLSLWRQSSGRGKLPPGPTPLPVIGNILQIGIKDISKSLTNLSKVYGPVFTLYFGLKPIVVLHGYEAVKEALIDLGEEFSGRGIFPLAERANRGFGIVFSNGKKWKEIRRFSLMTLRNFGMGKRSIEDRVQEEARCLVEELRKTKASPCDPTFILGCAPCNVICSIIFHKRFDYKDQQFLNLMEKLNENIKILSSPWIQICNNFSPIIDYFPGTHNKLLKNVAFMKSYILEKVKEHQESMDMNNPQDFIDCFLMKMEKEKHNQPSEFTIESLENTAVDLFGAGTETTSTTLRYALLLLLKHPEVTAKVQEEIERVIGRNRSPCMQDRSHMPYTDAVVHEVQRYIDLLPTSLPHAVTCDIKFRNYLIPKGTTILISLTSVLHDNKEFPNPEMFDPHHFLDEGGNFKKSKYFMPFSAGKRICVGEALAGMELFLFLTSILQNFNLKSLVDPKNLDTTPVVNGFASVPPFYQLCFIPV
# Chain of [Pyruvate dehydrogenase (acetyl-transferring)] kinase isozyme 1, mitochondrial (Q15118 whole entry): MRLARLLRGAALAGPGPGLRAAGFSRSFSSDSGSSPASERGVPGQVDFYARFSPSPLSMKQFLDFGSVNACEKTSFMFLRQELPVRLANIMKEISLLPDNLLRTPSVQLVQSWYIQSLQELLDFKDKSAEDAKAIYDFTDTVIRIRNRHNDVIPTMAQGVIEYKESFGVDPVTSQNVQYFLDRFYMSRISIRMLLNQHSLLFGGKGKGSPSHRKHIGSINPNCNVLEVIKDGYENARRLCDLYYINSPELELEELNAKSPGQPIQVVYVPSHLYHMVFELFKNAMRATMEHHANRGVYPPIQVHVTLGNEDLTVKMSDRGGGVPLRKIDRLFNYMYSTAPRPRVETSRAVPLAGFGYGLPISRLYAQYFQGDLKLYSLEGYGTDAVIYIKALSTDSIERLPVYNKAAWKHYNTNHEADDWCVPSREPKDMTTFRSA
IC50 [1] [nM],IC50 [2] [nM],IC50 [3] [nM],IC50 [4] [nM],GI50 (DU-145 [5]) [nM],GI50 (NCI-H1299 [6]) [nM],SMILES,further results
184,140,775,858,,,CN(C)C(=O)c1ccc(N(CC2CCCCC2)C(=O)c2ccc(O)cc2O)cc1,
252,20,52,255,,,Cc1ccc(CN(C(=O)c2ccc(O)cc2O)c2ccc(C(=O)N(C)C)cc2)o1,
2660,,5790,,,,CC(=O)Nc1ccc(CN(C(=O)c2ccc(O)cc2O)c2ccc(C(=O)N3CCOCC3)cc2)cc1,
2040,,390,,,,CN(C)C(=O)c1ccc(N(Cc2ccc(F)cc2)C(=O)c2ccc(O)cc2)cc1,
206,109,66,,,,CN(C)C(=O)c1ccc(N(Cc2ccccc2)C(=O)c2ccc(O)cc2O)cc1,
503,,311,,,,CC(=O)Nc1ccc(CN(C(=O)c2ccc(O)cc2O)c2ccc(C(=O)N(C)C)cc2)cc1,
64,20,20,64,40800,60200,CN(C)C(=O)c1ccc(N(Cc2ncc(Br)s2)C(=O)c2ccc(O)cc2O)cc1,IC50 (Heat shock protein HSP90): 6000 nM
302,151,399,461,,,CN(C)C(=O)c1ccc(N(Cc2ccc(C#N)cc2)C(=O)c2ccc(O)cc2O)cc1,
132,24,87,90,18900,32200,CN(C)C(=O)c1ccc(N(Cc2cnc(Br)s2)C(=O)c2ccc(O)cc2O)cc1,
1960,,14800,,,,CC(=O)Nc1ccc(CN(C(=O)c2ccc(O)cc2O)c2ccc(C(=O)NC3CC3)cc2)cc1,
110,,99,,44500,97100,CN(C)C(=O)c1ccc(N(Cc2ccc([N+](=O)[O-])cc2)C(=O)c2ccc(O)cc2O)cc1,
1620,,1980,,,,CC(=O)Nc1ccc(CN(C(=O)c2ccc(O)cc2O)c2ccc(C(=O)N3CCCCC3)cc2)cc1,
772,,5330,,,,CN(C)C(=O)c1ccc(N(CC(C)(C)C)C(=O)c2ccc(O)cc2O)cc1,
95,57,89,98,59800,107000,CN(C)C(=O)c1ccc(N(Cc2ccc(C#N)s2)C(=O)c2ccc(O)cc2O)cc1,
126,,169,,51000,31500,CN(C)C(=O)c1ccc(N(Cc2ccc(Cl)cc2)C(=O)c2ccc(O)cc2O)cc1,
10,36,13,59,10200,13400,CN(C)C(=O)c1ccc(N(Cc2ccc(Br)o2)C(=O)c2ccc(O)cc2O)cc1,IC50 [7]: 2090 nM; Activity (NCI-H1299 [8]): 30 - 34%; Activity (NCI-H1299 [9]): 32%; IC50 (Cytochrome P450 2D6): > 20000 nM; Activity (NCI-H1299 [10]): 50%; IC50 [11]: 310 nM; IC50 (Cytochrome P450 3A4): 1400 nM; IC50 (Cytochrome P450 2C19): 4300 nM; Activity (NCI-H1299 [12]): 70%; IC50 (Heat shock protein HSP90): 830 nM; Activity (DU-145 [13]): 60%; IC50 (Cytochrome P450 1A2): > 20000 nM; Activity (NCI-H1299 [14]): 24.8%; GI50 (NCI-H1299 [15]): 5500 nM; inhibition at 20 µM (NCI-H1299 [16]): 100%; IC50 (Cytochrome P450 2C9): > 20000 nM

IC50 [1] [nM],IC50 [2] [nM],IC50 [3] [nM],IC50 [4] [nM],GI50 (DU-145 [5]) [nM],GI50 (NCI-H1299 [6]) [nM],SMILES,further results
140,,273,,,,CN(C)C(=O)c1ccc(N(Cc2ccc(C(F)(F)F)cc2)C(=O)c2ccc(O)cc2O)cc1,
98,14,11,5,15900,39200,CN(C)C(=O)c1ccc(N(Cc2ccc(I)o2)C(=O)c2ccc(O)cc2O)cc1,
373,,234,,,,CN(C)C(=O)c1ccc(N(Cc2ccc3ccccc3c2)C(=O)c2ccc(O)cc2O)cc1,
8590,,7840,,,,CNC(=O)c1ccc(N(Cc2ccc(NC(C)=O)cc2)C(=O)c2ccc(O)cc2O)cc1,
193,24,82,181,29900,30000,CN(C)C(=O)c1ccc(N(Cc2ccc(Cl)o2)C(=O)c2ccc(O)cc2O)cc1,
8,9,5,80,41900,51600,CN(C)C(=O)c1ccc(N(Cc2cc(Br)cs2)C(=O)c2ccc(O)cc2O)cc1,IC50 (Cytochrome P450 2D6): > 20000 nM; IC50 (Cytochrome P450 3A4): < 1000 nM; IC50 (Cytochrome P450 2C19): 7800 nM; IC50 (Heat shock protein HSP90): 5790 nM; IC50 (Cytochrome P450 1A2): > 20000 nM; IC50 (Cytochrome P450 2C9): 18000 nM
150,113,34,136,3500,4900,CN(C)C(=O)c1ccc(N(Cc2ccc(O)cc2)C(=O)c2ccc(O)cc2O)cc1,IC50 [7]: 1460 nM; IC50 (Cytochrome P450 2D6): > 20000 nM; IC50 [11]: 1310 nM; IC50 (Cytochrome P450 3A4): 6470 nM; IC50 (Cytochrome P450 2C19): > 20000 nM; IC50 (Heat shock protein HSP90): > 10000 nM; IC50 (Cytochrome P450 1A2): > 20000 nM; IC50 (Cytochrome P450 2C9): 13400 nM
133,48,69,67,9000,7800,CN(C)C(=O)c1ccc(N(Cc2ccco2)C(=O)c2ccc(O)cc2O)cc1,IC50 [7]: 1090 nM; IC50 [11]: 580 nM; IC50 (Heat shock protein HSP90): 770 nM
,,,,,,O=C(O)C(Cl)Cl [DICHLOROACETIC ACID],GI50 (NCI-H1299 [15]): 8500 nM
113,67,52,142,69700,57100,CN(C)C(=O)c1ccc(N(Cc2ccc(F)cc2)C(=O)c2ccc(O)cc2O)cc1,IC50 (Heat shock protein HSP90): 5200 nM
7220,,4670,,,,CC(=O)Nc1ccc(CN(C(=O)c2ccc(O)cc2O)c2ccc(C(=O)O)cc2)cc1,
1660,,1810,,,,CC(=O)Nc1ccc(CN(C(=O)c2ccc(O)cc2O)c2ccc(C(=O)N3CCCC3)cc2)cc1,
9910,,12300,,,,CC(=O)Nc1ccc(CN(C(=O)c2ccc(O)cc2O)c2ccc(C(=O)NCCO)cc2)cc1,
18,42,8,90,42200,49800,CN(C)C(=O)c1ccc(N(Cc2ccc(Br)s2)C(=O)c2ccc(O)cc2O)cc1,
,,,,> 50000,> 50000,Cc1cnc(Cl)nc1-c1ccc(N(Cc2ccc(CNC(=O)C(F)F)cc2)C(=O)c2ccc(O)cc2O)cc1,IC50 (Heat shock protein HSP90): > 10000 nM
> 10000,,> 10000,,,,CN(C)C(=O)c1ccc(N(Cc2ccc(F)cc2)C(=O)c2ccccc2O)cc1,
